“Also recorded” adds a separate entry of the source.
Key:
[1] = tested on: mouse extensor digitorum longus muscles; assay: Isolated mouse muscle contraction study
Method: FIG. 4 is a schematic diagram of a validated isolated mouse muscle contraction study. Muscles were anchored at one end to the chamber floor and connected at the other end to a force transducer. After establishing a baseline response to the electrical field stimulation, HD was added to the buffer at concentrations ranging from 0.01% w/w to 1% w/w, and the impact on muscle contractile force was recorded over time at the frequency of 150 Hz. Additionally, muscles were subjected to varying frequencies of electrical stimulation to evaluate the frequency-dependent effects of HD.
This subsequent study was aimed to elucidate the specific effects of HD on isolated muscle tissue from mice, to quantify its potential use as a muscle relaxant. The study's design allowed for the controlled assessment of muscle contractility in a physiological buffer, minimizing external variables present in in vivo models. Muscle Isolation: The mouse extensor digitorum longus muscles were carefully dissected and mounted in a tissue bath super-fused with oxygenated physiological buffer, ensuring tissue viability throughout the experiment (FIG. 4). Baseline Measurement: Initial contractile responses were established via electrical stimulation at various frequencies, setting a comparative baseline for subsequent HD application effects. HD Application: Differing concentrations of HD (ranging from 0.01% to 1%) were introduced to the buffer. The muscle's contractile force (amplitude, which is the maximum contractile force) was determined to assess HD's concentration-dependent effects at a fixed frequency of 150 Hz (FIG. 6). Stimulation Frequency Adjustment: To explore the frequency-dependent nature of HD's action, muscles underwent varied frequencies of electrical stimulation at a fixed concentration of 0.5% of HD. This protocol aimed to simulate conditions of sporadic muscle spasms.

hind limb muscle = assay: Rat hind limb muscle twitch study; format: in vivo, Sprague-Dawley rats
Method: FIG. 1 is a schematic diagram of a validated muscle twitch experimental set-up in the present disclosure. Here anesthetized Sprague-Dawley rats were prepared for muscle contraction assessment of their hindlimbs. The hind limbs were shaved and secured at the knee and ankle joints to prevent movement. The distal tendon of the targeted muscle was connected to a high-sensitivity force transducer to measure contractile force with precision. Electrical stimulation was delivered via electrodes positioned on the sciatic nerve to evoke muscle contractions. Vehicle (control study) or 5% w/w of HD was topically applied to the dermal area corresponding to the muscle group under study, ensuring proximity for local diffusion and effect.
A study was performed to evaluate the effects of HD on muscle contractility using a validated in vivo rat model. The experimental setup was meticulously designed to measure the contractile force of the hind limb muscle in response to electrical stimulation of the sciatic nerve, providing a quantitative assessment of muscle relaxation and contraction dynamics in the presence of HD. Anesthetized Sprague-Dawley rats were used for this study, ensuring minimal variability in response to HD application. Hind limbs were shaved and then immobilized at the knee and ankle joints to isolate the effect of the targeted muscle group. The distal tendon of the targeted muscle was connected to a high-sensitivity force transducer for accurate measurement of contractile force. An electrical stimulation was applied via electrodes strategically placed on the sciatic nerve, designed to evoke muscle contractions with controlled frequency to determine amplitude, and duration parameters. A specific concentration of 5% w/w of HD in lubricating lotion, prepared on the same day, was topically applied to the skin overlaying the muscle group under study and the control group received a vehicle (lubricating lotion) treatment under identical conditions.

hairless mice = assay: Rotarod performance study in hairless mice; format: in vivo; conditions: 5% w/w HD topical
Method: FIG. 7 is an illustration of a Rota Rod apparatus in the present disclosure. Once the mice were trained, the rod was rotated at a constant speed of 20 rpm. Then the mice were placed on the rotating rod and length of time they could stay on the rotating rod was measured in seconds.
The Rotarod study was to investigate the skeletal muscle relaxant effects of HD, specifically its impact on motor coordination and balance in hairless mice. The study was structured to assess both the kinetics of HD's effect over time and its efficacy in inducing muscle relaxation. Efficacy of HD was determined post-treatment at intervals of 15, 30, 60, 75, 90 minutes, and another to evaluate the efficacy, particularly noting the peak effect at 30 minutes post-application. Control and Treatment Groups: Each stage included a control group receiving vehicle (Aloe Vera Gel) and a test group treated with HD, 5% w/w HD (0.5 g) in the vehicle (9.5 g Aloe Vera Gel), prepared right before the study. The topical treatment was applied to the thighs of all four limbs for each mouse.

CCCCC(O)CO (stereo not shown) [HD, 1,2-hexanediol]
inhibitory effect on muscle contraction ([1]; 0.01% HD in buffer, 150 Hz): No significant inhibitory effect; also recorded: minimal effects | reduction in contractile force ([1]; 0.1% HD in buffer, 150 Hz, vs vehicle controls): ~44% | frequency-dependent decrease in torque generation (force-frequency relationship) ([1]; 0.5% HD, varied stimulus frequencies, vs vehicle, n=5): inhibition is more complete at higher frequencies of stimulation; also recorded: more significant inhibitory effect | duration of muscle contraction (hind limb muscle; 5% w/w HD topical vs vehicle, p<0.05): statistically significant reduction | mean percentage decline in force output from initial peak contraction (hind limb muscle; 5% w/w HD topical, compared to vehicle group): quantitatively significant | ability to maintain tetanic contraction throughout the stimulus period (hind limb muscle; 5% w/w HD topical, electrical stimulation at 150 Hz): unable to maintain tetanic contraction; also recorded: failing to maintain tetanic tension | recovery of mice from the muscle relaxant effect (safety) (hairless mice): all mice recovered | time spent on Rota Rod (hairless mice; 30 and 60 minutes post treatment, 20 rpm, vehicle 60 seconds): significant decrease | recovery from the muscle relaxant effect (hairless mice; by 75 minutes): recovery trend | time of most notable muscle relaxant activity post-treatment (hairless mice; preliminary experiments (data not shown)): 30 min
